“Also recorded” adds a separate entry of the source.
These compounds were tested on P. falciparum Cam3.II lines (assay: Isobologram analyses (fixed-ratio drug combinations)). Settings: across asynchronous parasites, early rings and trophozoites.
Format: cell-based, Plasmodium falciparum
Protocol: Assays were performed with fixed ratios of drug combinations (1:0, 4:1, 2:1, 1:1, 1:2, 1:4, and 0:1), tested in duplicate. Combinations were prepared from 16×IC50 drug stocks and tested across a range of two-fold dilutions. Assays were conducted with asynchronous cultures exposed for 72 hr or with tightly synchronized rings or trophozoites (tested at 0–3 hr or 24–27 hr post-invasion, respectively) exposed for 3 hr. Post-pulse drug washouts were conducted as described above for in vitro determination of IC50 levels. IC50 values were derived for each compound tested alone, and fractional IC50 (FIC50) values were determined for each compound tested in combination (FIC50 = […]) and plotted for each drug combination. For each combination, the mean of the sums of FIC50 values at each combination (mean ΣFIC50) was also calculated and the results illustrated using heat maps.

| Compound | Interaction with WLL or WLW |
| --- | --- |
| O=C1C(O)=C([C@H]2CC[C@H](c3ccc(Cl)cc3)CC2)C(=O)c2ccccc21 [ATQ, atovaquone] | Additive to antagonistic; also recorded: antagonism observed in asynchronous parasites and early rings was attenuated in trophozoites |
| CCN(CC)CCCC(C)Nc1ccnc2cc(Cl)ccc12 (centres unmarked) [CQ, chloroquine] | Additive to antagonistic; also recorded: moderate to potent antagonism |
| CCCCN(CCCC)CC(O)c1cc(Cl)cc2c1-c1ccc(Cl)cc1/C2=C/c1ccc(Cl)cc1 (centres unmarked) [LMF, lumefantrine] | Additive to antagonistic |

Same assay, conditions: asynchronous parasites, 72 hr

| Compound | Interaction with WLL or WLW |
| --- | --- |
| CCCCN(CCCC)CC(O)c1cc(Cl)cc2c1-c1ccc(Cl)cc1/C2=C/c1ccc(Cl)cc1 (centres unmarked) [LMF, lumefantrine] | mild antagonism |

Same assay, conditions: combined with WLL; Asynchronous, 72 hr; Cam3.II K13C580Y

| Compound | Mean of the sums of FIC50 (mean ΣFIC50) |
| --- | --- |
| O=C1C(O)=C([C@H]2CC[C@H](c3ccc(Cl)cc3)CC2)C(=O)c2ccccc21 [ATQ, atovaquone] | 1.22 |
| CCN(CC)CCCC(C)Nc1ccnc2cc(Cl)ccc12 (centres unmarked) [CQ, chloroquine] | 1.53 |
| CCCCN(CCCC)CC(O)c1cc(Cl)cc2c1-c1ccc(Cl)cc1/C2=C/c1ccc(Cl)cc1 (centres unmarked) [LMF, lumefantrine] | 1.24 |

Same assay, conditions: combined with WLL; Asynchronous, 72 hr; Cam3.II K13WT

| Compound | Mean of the sums of FIC50 (mean ΣFIC50) |
| --- | --- |
| O=C1C(O)=C([C@H]2CC[C@H](c3ccc(Cl)cc3)CC2)C(=O)c2ccccc21 [ATQ, atovaquone] | 1.33 |
| CCN(CC)CCCC(C)Nc1ccnc2cc(Cl)ccc12 (centres unmarked) [CQ, chloroquine] | 1.41 |
| CCCCN(CCCC)CC(O)c1cc(Cl)cc2c1-c1ccc(Cl)cc1/C2=C/c1ccc(Cl)cc1 (centres unmarked) [LMF, lumefantrine] | 1.42 |

Same assay, conditions: combined with WLL; Rings, 3 hr exposure; Cam3.II K13C580Y

| Compound | Mean of the sums of FIC50 (mean ΣFIC50) |
| --- | --- |
| O=C1C(O)=C([C@H]2CC[C@H](c3ccc(Cl)cc3)CC2)C(=O)c2ccccc21 [ATQ, atovaquone] | 1.54 |
| CCN(CC)CCCC(C)Nc1ccnc2cc(Cl)ccc12 (centres unmarked) [CQ, chloroquine] | 1.70 |
| CCCCN(CCCC)CC(O)c1cc(Cl)cc2c1-c1ccc(Cl)cc1/C2=C/c1ccc(Cl)cc1 (centres unmarked) [LMF, lumefantrine] | 1.13 |

Same assay, conditions: combined with WLL; Rings, 3 hr exposure; Cam3.II K13WT

| Compound | Mean of the sums of FIC50 (mean ΣFIC50) |
| --- | --- |
| O=C1C(O)=C([C@H]2CC[C@H](c3ccc(Cl)cc3)CC2)C(=O)c2ccccc21 [ATQ, atovaquone] | 1.64 |
| CCN(CC)CCCC(C)Nc1ccnc2cc(Cl)ccc12 (centres unmarked) [CQ, chloroquine] | 1.69 |
| CCCCN(CCCC)CC(O)c1cc(Cl)cc2c1-c1ccc(Cl)cc1/C2=C/c1ccc(Cl)cc1 (centres unmarked) [LMF, lumefantrine] | 1.23 |

Same assay, conditions: combined with WLL; Trophozoites, 3 hr exposure; Cam3.II K13C580Y

| Compound | Mean of the sums of FIC50 (mean ΣFIC50) |
| --- | --- |
| O=C1C(O)=C([C@H]2CC[C@H](c3ccc(Cl)cc3)CC2)C(=O)c2ccccc21 [ATQ, atovaquone] | 0.99 |
| CCN(CC)CCCC(C)Nc1ccnc2cc(Cl)ccc12 (centres unmarked) [CQ, chloroquine] | 1.75 |
| CCCCN(CCCC)CC(O)c1cc(Cl)cc2c1-c1ccc(Cl)cc1/C2=C/c1ccc(Cl)cc1 (centres unmarked) [LMF, lumefantrine] | 1.24 |

Same assay, conditions: combined with WLL; Trophozoites, 3 hr exposure; Cam3.II K13WT

| Compound | Mean of the sums of FIC50 (mean ΣFIC50) |
| --- | --- |
| O=C1C(O)=C([C@H]2CC[C@H](c3ccc(Cl)cc3)CC2)C(=O)c2ccccc21 [ATQ, atovaquone] | 1.11 |
| CCN(CC)CCCC(C)Nc1ccnc2cc(Cl)ccc12 (centres unmarked) [CQ, chloroquine] | 1.89 |
| CCCCN(CCCC)CC(O)c1cc(Cl)cc2c1-c1ccc(Cl)cc1/C2=C/c1ccc(Cl)cc1 (centres unmarked) [LMF, lumefantrine] | 1.12 |

Same assay, conditions: combined with WLW; Asynchronous, 72 hr; Cam3.II K13C580Y

| Compound | Mean of the sums of FIC50 (mean ΣFIC50) |
| --- | --- |
| O=C1C(O)=C([C@H]2CC[C@H](c3ccc(Cl)cc3)CC2)C(=O)c2ccccc21 [ATQ, atovaquone] | 1.16 |
| CCN(CC)CCCC(C)Nc1ccnc2cc(Cl)ccc12 (centres unmarked) [CQ, chloroquine] | 1.36 |
| CCCCN(CCCC)CC(O)c1cc(Cl)cc2c1-c1ccc(Cl)cc1/C2=C/c1ccc(Cl)cc1 (centres unmarked) [LMF, lumefantrine] | 1.07 |

Same assay, conditions: combined with WLW; Asynchronous, 72 hr; Cam3.II K13WT

| Compound | Mean of the sums of FIC50 (mean ΣFIC50) |
| --- | --- |
| O=C1C(O)=C([C@H]2CC[C@H](c3ccc(Cl)cc3)CC2)C(=O)c2ccccc21 [ATQ, atovaquone] | 1.28 |
| CCN(CC)CCCC(C)Nc1ccnc2cc(Cl)ccc12 (centres unmarked) [CQ, chloroquine] | 1.29 |
| CCCCN(CCCC)CC(O)c1cc(Cl)cc2c1-c1ccc(Cl)cc1/C2=C/c1ccc(Cl)cc1 (centres unmarked) [LMF, lumefantrine] | 1.32 |

Same assay, conditions: combined with WLW; Rings, 3 hr exposure; Cam3.II K13C580Y

| Compound | Mean of the sums of FIC50 (mean ΣFIC50) |
| --- | --- |
| O=C1C(O)=C([C@H]2CC[C@H](c3ccc(Cl)cc3)CC2)C(=O)c2ccccc21 [ATQ, atovaquone] | 1.20 |
| CCN(CC)CCCC(C)Nc1ccnc2cc(Cl)ccc12 (centres unmarked) [CQ, chloroquine] | 1.54 |
| CCCCN(CCCC)CC(O)c1cc(Cl)cc2c1-c1ccc(Cl)cc1/C2=C/c1ccc(Cl)cc1 (centres unmarked) [LMF, lumefantrine] | 0.98 |

Same assay, conditions: combined with WLW; Rings, 3 hr exposure; Cam3.II K13WT

| Compound | Mean of the sums of FIC50 (mean ΣFIC50) |
| --- | --- |
| O=C1C(O)=C([C@H]2CC[C@H](c3ccc(Cl)cc3)CC2)C(=O)c2ccccc21 [ATQ, atovaquone] | 1.17 |
| CCN(CC)CCCC(C)Nc1ccnc2cc(Cl)ccc12 (centres unmarked) [CQ, chloroquine] | 1.45 |
| CCCCN(CCCC)CC(O)c1cc(Cl)cc2c1-c1ccc(Cl)cc1/C2=C/c1ccc(Cl)cc1 (centres unmarked) [LMF, lumefantrine] | 0.95 |

Same assay, conditions: combined with WLW; Trophozoites, 3 hr exposure; Cam3.II K13C580Y

| Compound | Mean of the sums of FIC50 (mean ΣFIC50) |
| --- | --- |
| O=C1C(O)=C([C@H]2CC[C@H](c3ccc(Cl)cc3)CC2)C(=O)c2ccccc21 [ATQ, atovaquone] | 1.07 |
| CCN(CC)CCCC(C)Nc1ccnc2cc(Cl)ccc12 (centres unmarked) [CQ, chloroquine] | 1.41 |
| CCCCN(CCCC)CC(O)c1cc(Cl)cc2c1-c1ccc(Cl)cc1/C2=C/c1ccc(Cl)cc1 (centres unmarked) [LMF, lumefantrine] | 1.01 |

Same assay, conditions: combined with WLW; Trophozoites, 3 hr exposure; Cam3.II K13WT

| Compound | Mean of the sums of FIC50 (mean ΣFIC50) |
| --- | --- |
| O=C1C(O)=C([C@H]2CC[C@H](c3ccc(Cl)cc3)CC2)C(=O)c2ccccc21 [ATQ, atovaquone] | 1.02 |
| CCN(CC)CCCC(C)Nc1ccnc2cc(Cl)ccc12 (centres unmarked) [CQ, chloroquine] | 1.57 |
| CCCCN(CCCC)CC(O)c1cc(Cl)cc2c1-c1ccc(Cl)cc1/C2=C/c1ccc(Cl)cc1 (centres unmarked) [LMF, lumefantrine] | 1.16 |

Same assay, conditions: early rings and trophozoites

| Compound | Interaction with WLL or WLW |
| --- | --- |
| CCCCN(CCCC)CC(O)c1cc(Cl)cc2c1-c1ccc(Cl)cc1/C2=C/c1ccc(Cl)cc1 (centres unmarked) [LMF, lumefantrine] | largely additive |
